Measured values from patent publication US8507410B2, “Pyridazinone compound and use thereof” (Sumitomo Chemical Company, Limited, priority 2009, dated 2013).
Values belong to the compound of their own block, whether it stands above or below them.

Assays:
Galium aparine = experiment: Test Example 1-3: foliar spray, controlling effect on Galium aparine; assay type: in vivo; set-up: key: 0 represents “no effect”; 10 represents “complete death”; a state of the plant therebetween is classified into 1 to 9; details: treatment amount 250 g/ha; sprayed at second- to third-leaf stage; visually evaluated after 20 days
Procedure: A plastic cup with a diameter of 8 cm and a depth of 6.5 cm was filled with soil. Seeds of Galium aparine were sowed in the cup, and then the plant was grown until the second- to third-leaf stage. Then, a determined amount of a test solution containing the compound of the present invention was sprayed onto the whole plant uniformly. The test solution was prepared by dissolving a predetermined amount of the compound of the present invention in a 2% solution of Tween 20 (polyoxyethylene sorbitan fatty acid ester, MP Biomedicals, Inc.) in dimethylformamide and then diluting the solution with water. After the spray treatment, the plant was grown in a greenhouse. After 20 days, a controlling effect of the compound on Galium aparine was visually evaluated. The effect was classified into 11 levels, from 0 to 10 (0 represents “no effect”; 10 represents “complete death”; and a state of the plant therebetween is classified into 1 to 9).
(§1) Compound D was similarly tested as a comparative example.

Lolium multiflorum = experiment: Test Example 1-1: foliar spray, controlling effect on Lolium multiflorum; assay type: in vivo; set-up: key: 0 represents “no effect”; 10 represents “complete death”; a state of the plant therebetween is classified into 1 to 9; details: treatment amount 250 g/ha; sprayed at first to second leaf stage; visually evaluated after 20 days
Procedure: A plastic cup with a diameter of 8 cm and a depth of 6.5 cm was filled with soil. Seeds of Lolium multiflorum were sowed in the cup, and then the plant was grown until the first to second leaf stage. Then, a determined amount of a test solution containing the compound of the present invention was sprayed onto the whole plant uniformly. The test solution was prepared by dissolving a predetermined amount of the compound of the present invention in a 2% solution of Tween 20 (polyoxyethylene sorbitan fatty acid ester, MP Biomedicals, Inc.) in dimethylformamide and then, diluting the solution with water. After the spray treatment, the plant was grown in a greenhouse. After 20 days, a controlling effect of the compound on Lolium multiflorum was visually evaluated. The effect was classified into 11 levels, from 0 to 10 (0 represents “no effect”; 10 represents “complete death”; and a state of the plant therebetween is classified into 1 to 9).
Compound D as shown below was similarly tested as a comparative example.

Echinochloa crus-galli = experiment: Test Example 1-2: foliar spray, controlling effect on Echinochloa crus-galli; assay type: in vivo; set-up: key: 0 represents “no effect”; 10 represents “complete death”; a state of the plant therebetween is classified into 1 to 9; details: treatment amount 1,000 g/ha; sprayed at second- to third-leaf stage; visually evaluated after 20 days
Procedure: A plastic cup with a diameter of 8 cm and a depth of 6.5 cm was filled with soil. Seeds of Echinochloa crus-galli were sowed in the cup, and then the plant was grown until the second- to third-leaf stage. Then, a determined amount of a test solution containing the compound of the present invention was sprayed onto the whole plant uniformly. The test solution was prepared by dissolving a predetermined amount of the compound of the present invention in a 2% solution of Tween 20 (polyoxyethylene sorbitan fatty acid ester, MP Biomedicals, Inc.) in dimethylformamide and then diluting the solution with water. After the spray treatment, the plant was grown in a greenhouse. After 20 days, a controlling effect of the compound on Echinochloa crus-galli was visually evaluated. The effect was classified into 11 levels, from 0 to 10 (0 represents “no effect”; 10 represents “complete death”; and a state of the plant therebetween is classified into 1 to 9).
as §1

Bemisia tabaci = experiment: Test Example 2-7: tomato seedling spray, larvae of Bemisia tabaci; assay type: in vivo; details: 500 ppm, 10 ml/cup sprayed on tomato seedling; 25° C., 7 days
Procedure: The formulation of the compound of the present invention obtained in Reference Example 4 was diluted with water so that the concentration of the active ingredient became 500 ppm to prepare a test solution. On a tomato seedling at the third true leaf stage placed in a polyethylene cup, imagoes of Bemisia tabaci were released and allowed to lay eggs for about 24 hours. The plant was placed in a greenhouse for 8 days. When larvae of Bemisia tabaci hatched from the eggs, 10 ml/cup of the test solution was sprayed. After the plant was kept at 25° C. for 7 days, the number of the larvae surviving on the tomato leaves was counted, and a controlling value was determined by the following equation. Controlling value (%)={1−(Cb×Tai)/(Cai×Tb)}×100 wherein Cb: the number of insects in a non-treated section before treatment, Cai: the number of insects in a non-treated section on observation, Tb: the number of insects in a treated-section before treatment, Tai: the number of insects in a treated section on observation.

Adoxophyes orana = experiment: Test Example 2-1: artificial diet test on first-instar larvae of Adoxophyes orana; assay type: in vivo; details: 500 ppm test solution, 1 mL on artificial diet; 25° C., 7 days
Procedure: The formulation of the compound of the present invention obtained in Formulation Example 3 was diluted with water so that the concentration of the active ingredient became 500 ppm to prepare a test solution.
(§2) An artificial diet, Silkmate 2S (Nihon Nosan Kogyo Corp.) was sliced into 2 mm in thickness and then placed on the bottom of a polyethylene cup. Then, 1 mL of the test solution was poured into the polyethylene cup. After air dried, 30 first-instar larvae of Adoxophyes orana were released into the polyethylene cup, and the cup was sealed with a lid. After the polyethylene cup was kept at 25° C. for 7 days, the number of surviving insects was counted. A death rate was calculated by the following equation, and the effect of the tested compound was evaluated with the following insecticidal indexes. Death rate (%)={1−(Number of surviving insects/Number of tested insects)}×100 Insecticidal indexes 4: death rate of 100%, 3: death rate of 80-99%, 2: death rate of 60-79%, 1: death rate of 30-59%, 0: death rate of 0-29%

[1] = test system: Frankliniella occidentalis; experiment: Test Example 2-8: sprayed cucumber leaf, larvae of Frankliniella occidentalis; assay type: in vivo; details: 500 ppm, 10 mL/cup sprayed on cucumber seedling; 25° C., 7 days
Procedure: The formulation of the compound of the present invention obtained in Reference Example 3 was diluted with water so that the concentration of the active ingredient became 500 ppm to prepare a test solution. On a cucumber seedling at the second true leaf stage planted in a polyethylene cup, 10 mL/cup of the test solution was sprayed. After the test solution was dried, the first true […] cut off and then placed in a polyethylene cup. Into the polyethylene cup, 20 larvae of Frankliniella occidentalis were released, and the cup was sealed with a lid. After the cup was kept at 25° C. for 7 days, the number of the insects surviving on the cucumber leaves was counted, and a controlling value was determined by the following equation. Controlling value (%)={1-(Cb×Tai)/(Cai×Tb)}×100 wherein Cb: the number of insects in a non-treated section before treatment, Cai: the number of insects in a non-treated section on observation, Tb: the number of insects in a treated-section before treatment, Tai: the number of insects in a treated section on observation.

Culex pipiens pallens = experiment: Test Example 2-3: last-instar larvae of Culex pipiens pallens released into dilution; assay type: in vivo; details: active ingredient concentration 3.5 ppm in water; after 8 days
Procedure: The formulation of the compound of the present invention obtained in Reference Example 3 was diluted with water so that the concentration of the active ingredient became 500 ppm to prepare a test solution. 0.7 mL of the test solution was diluted with ion-exchanged water so that the active ingredient concentration became 3.5 ppm. Into the dilution, 20 last-instar larvae of Culex pipiens pallens were released. After 8 days, the number of dead insects was counted. A death rate was calculated by the following equation, and the effect of the tested compound was evaluated with following insecticidal indexes of 4: death rate of 91-100%, 2: death rate of 11-90%, and 0: death rate of 0-10%. Death rate (%)=(Number of dead insects/Number of tested insects)×100

Aphis gossypii = experiment: Test Example 2-6: cucumber seedling spray, imagoes of Aphis gossypii; assay type: in vivo; details: 500 ppm, 10 mL sprayed on cucumber seedling one day after release; counted five days after spraying
Procedure: The formulation of the compound of the present invention obtained in Reference Example 3 was diluted with water so that the concentration of the active ingredient became 500 ppm to prepare a test solution. On a cucumber seedling at the second true leaf stage placed in a polyethylene cup, about 30 imagoes of Aphis gossypii were released. One day after the release of aphids, 10 mL of the test solution was sprayed on the plant. Five days after the spraying treatment, the number of the insects parasitizing the leaves of the plant was counted, and a controlling value was determined by the following equation. Controlling value (%)={1−(Cb×Tai)/(Cai×Tb)}×100 wherein Cb: the number of insects in a non-treated section before treatment, Cai: the number of insects in a non-treated section on observation, Tb: the number of insects in a treated-section before treatment, Tai: the number of insects in a treated section on observation.

Spodoptera litura = experiment: Test Example 2-2: artificial diet test on fourth-instar larvae of Spodoptera litura; assay type: in vivo; details: 500 ppm test solution, 1 mL on artificial diet; 25° C., 6 days
Procedure: as §2, with “The formulation of the compound of the present invention obtained in Formulation Example 3 was diluted with water so that the concentration of the active ingredient became 500 ppm to prepare a test solution. An” for “An”, “diet, Insecta LF” for “diet, Silkmate 2S”, “dried, 5 fourth-instar” for “dried, 30 first-instar”, “of Spodoptera litura” for “of Adoxophyes orana”, “for 6” for “for 7”

- melting point: 142 to 143 °C
Compound: CCc1cc(CC)c(-c2c(OCS(C)(=O)=O)c(C)nn(C)c2=O)c(CC)c1 [I-4-1, 2,6-dimethyl-5-methylsulfonylmethoxy-4-(2,4,6-triethylphenyl)-3(2H)-pyridazinone]

Compound: CCc1cc(C)cc(CC)c1-c1c(OC)c(C)nn(C)c1=O [Compound D]
- controlling effect on Galium aparine (11 levels, 0 to 10) (Galium aparine): 0
- controlling effect on Lolium multiflorum (11 levels, 0 to 10) (Lolium multiflorum): 0
- controlling effect on Echinochloa crus-galli (11 levels, 0 to 10) (Echinochloa crus-galli): 0

Compound: COCOc1c(C)nn(C)c(=O)c1-c1cc(-c2ccc(Cl)cc2)ccc1C [I-1-6]
- controlling value (Bemisia tabaci): ≥ 90%
- insecticidal index (death rate) (Adoxophyes orana): 4 (death rate of 100%)
- controlling value [1]: ≥ 90%
- insecticidal index (death rate) (Culex pipiens pallens): 4 (death rate of 91-100%)
- controlling value (Aphis gossypii): ≥ 90%
- insecticidal index (death rate) (Spodoptera litura): 3 (death rate of 80-99%)
